The record followed here is ChEMBL document CHEMBL2016523, “Discovery of an orally-bioavailable CC Chemokine Receptor 2 antagonist derived from an acyclic diaminoalcohol backbone” (Bioorg Med Chem Lett, 2012).

Data set [1] addresses T1, C-C chemokine receptor type 2 (Homo sapiens, UniProt P41597). Description: Displacement of [125-I]MCP1 from CCR2 on human PBMC.
Target sequence in this assay (P41597 whole entry): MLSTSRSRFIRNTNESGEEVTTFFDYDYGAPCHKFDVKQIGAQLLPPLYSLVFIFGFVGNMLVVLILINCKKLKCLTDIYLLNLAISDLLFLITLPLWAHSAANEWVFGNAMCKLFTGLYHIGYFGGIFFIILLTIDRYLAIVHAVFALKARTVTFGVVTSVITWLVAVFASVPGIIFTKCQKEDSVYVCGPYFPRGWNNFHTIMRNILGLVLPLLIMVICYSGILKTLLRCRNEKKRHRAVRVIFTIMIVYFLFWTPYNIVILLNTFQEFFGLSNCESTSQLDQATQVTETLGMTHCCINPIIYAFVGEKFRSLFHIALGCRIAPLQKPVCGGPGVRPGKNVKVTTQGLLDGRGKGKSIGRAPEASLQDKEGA
Data set [2] deals with C-C chemokine receptor type 2 (Mus musculus) (UniProt P51683). The data set can be described thus: Binding affinity to mouse CCR2.
The target in data set [3] is C-C chemokine receptor type 5 (Mus musculus, UniProt P51682). The data set can be described thus: Binding affinity to mouse CCR5.
The target in data set [4] is C-C chemokine receptor type 2 (Mus musculus) (UniProt P51683). The data set can be described thus: Antagonist activity at CCR2 in mouse monocytes assessed as inhibition of MCP1-induced calcium flux. It counts as functional, cell-based.
A short description of data set [5]: Oral bioavailability in mouse. It counts as ADME, organism-based. The settings on record: in vivo.
Data set [6] concerns the target C-C chemokine receptor type 2 (Mus musculus) (UniProt P51683). The data set can be described thus: Antagonist activity at CCR2 in mouse monocytes assessed as inhibition of MCP1-induced cAMP depression. It counts as functional, cell-based.
Data set [7] is filed under the species Mus musculus. Description: Selectivity for mouse CCR2 over mouse CCR1.
Data set [8] can be described thus: Clearance in mouse. The note with it: in vivo. Format: ADME, organism-based.
Data set [9] is filed under the species Mus musculus. Description: Selectivity for mouse CCR2 over mouse CCR2.
The target in data set [10] is T1, C-C chemokine receptor type 2. Description: Displacement of [125-I]MCP1 from CCR2 on human PBMC at 1 uM.
Target sequence in this assay (P41597 whole entry, looked up): as the sequence (P41597 whole entry) above

The source made the active and inactive calls. The calls are words filed in the database; no cut-off is given here.

C-C chemokine receptor type 2 (Mus musculus), sequence (P51683 whole entry, looked up): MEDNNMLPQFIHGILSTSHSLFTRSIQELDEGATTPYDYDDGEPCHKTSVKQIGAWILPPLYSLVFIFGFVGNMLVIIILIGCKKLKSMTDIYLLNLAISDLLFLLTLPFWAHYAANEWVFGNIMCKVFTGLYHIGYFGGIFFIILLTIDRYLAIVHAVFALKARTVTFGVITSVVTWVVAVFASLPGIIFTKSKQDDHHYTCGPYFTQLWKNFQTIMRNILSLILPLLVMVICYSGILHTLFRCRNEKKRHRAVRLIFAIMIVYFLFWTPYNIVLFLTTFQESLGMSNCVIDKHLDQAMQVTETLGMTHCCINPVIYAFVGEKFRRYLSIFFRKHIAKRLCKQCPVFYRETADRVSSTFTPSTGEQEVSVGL
C-C chemokine receptor type 5, sequence (P51682 whole entry): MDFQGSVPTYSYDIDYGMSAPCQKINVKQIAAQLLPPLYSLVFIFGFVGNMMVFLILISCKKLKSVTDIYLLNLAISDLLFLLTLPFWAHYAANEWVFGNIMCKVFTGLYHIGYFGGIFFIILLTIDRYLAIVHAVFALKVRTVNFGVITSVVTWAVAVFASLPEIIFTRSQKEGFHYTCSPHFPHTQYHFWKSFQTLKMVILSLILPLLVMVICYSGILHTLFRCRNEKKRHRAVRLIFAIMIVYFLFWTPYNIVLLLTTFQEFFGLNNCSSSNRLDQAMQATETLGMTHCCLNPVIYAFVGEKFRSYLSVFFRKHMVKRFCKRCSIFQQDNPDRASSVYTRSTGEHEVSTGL

One may read the IC50 as the concentration that gives 50% inhibition. In data set [1], `CCC[C@H](O)[C@H](CNCc1ccc(C)cc1C)NC(=O)CNC(=O)c1cc(C(F)(F)F)ccc1NC(=O)NC` came in with a 50% inhibitory concentration (IC50) of 6.7 nM.

In data set [1], `CCC[C@H](O)[C@H](CNCc1ccc(C)cc1C)NC(=O)CC(=O)Nc1cc(NC(=O)NCC)cc(C(F)(F)F)c1` displayed an IC50 of 40 nM.

As for `CC[C@H](O)[C@H](CNCc1ccc(C)cc1C)NC(=O)CNC(=O)c1cccc(C(F)(F)F)c1`, the half-maximal inhibitory concentration (IC50) in data set [1] came out at 64 nM.

With `Cc1ccc(CNC[C@H](NC(=O)CNC(=O)c2cccc(C(F)(F)F)c2)[C@H](O)c2ccccc2)c(C)c1`, the IC50 in data set [1] is above 1000 nM.

`CCC[C@H](O)[C@H](CNCc1ccc(C)cc1C)NC(=O)CC(=O)Nc1cc(N)cc(C(F)(F)F)c1` yielded a half-maximal inhibitory concentration (IC50) in [1] of 3.8 nM.

Molecule `CCC(O)(CC)[C@H](CNCc1ccc(C)cc1C)NC(=O)CNC(=O)c1cc(C(F)(F)F)ccc1N` registered a concentration for half-maximal inhibition (IC50) in data set [1] of 41 nM.

With `Cc1ccc(CNC[C@H](NC(=O)CNC(=O)c2cccc(C(F)(F)F)c2)[C@@H](O)C(C)C)c(C)c1`, the IC50 in data set [1] stood at 65 nM.

As for `CCC[C@H](O)[C@H](CNCc1ccc(C)cc1C)NC(=O)Cc1nc2c(C(F)(F)F)cccc2[nH]1`, the IC50 in data set [1] was 49 nM. This IC50 and that of the molecule before are within 1.5-fold of each other.

In the case of `CCC[C@H](O)[C@H](CNCc1ccc(C)cc1C)NC(=O)CC(=O)Nc1cc(C(F)(F)F)cc(C(F)(F)F)c1`, in [1], the IC50 was 690 nM.

With `Cc1ccc(CNC[C@H](NC(=O)CNC(=O)c2cccc(C(F)(F)F)c2)[C@@H](O)CC(C)C)c(C)c1`, the inhibition entry in data set [2] is “inactive”.

In the case of `CCC[C@H](O)[C@H](CNCc1ccc(C)cc1C)NC(=O)CC(=O)Nc1cc(C(F)(F)F)ccc1N`, in [1], the 50% inhibitory concentration (IC50) was determined as 43 nM.

Take `Cc1ccc(CNC[C@H](NC(=O)CNC(=O)c2cccc(C(F)(F)F)c2)[C@H](O)CC(C)C)c(C)c1`: the inhibition entry in [2] was “inactive”.

On to `CCC[C@H](O)[C@H](CNCc1ccc(C)cc1C)NC(=O)CNC(=O)c1cc(C(F)(F)F)ccc1N`, for which, in data set [1], the IC50 is 3.4 nM. For the same molecule, in [2], the inhibition result is “Active”.

In [1], `CCC[C@H](O)[C@H](CNCc1ccc(C)cc1C)N1CC[C@H](NC(=O)c2cc(N)cc(C(F)(F)F)c2)C1=O` registered an IC50 of 1230 nM.

`CCCC(O)(CCC)[C@H](CNCc1ccc(C)cc1C)NC(=O)CNC(=O)c1cc(C(F)(F)F)ccc1N` showed an IC50 in [1] of 27 nM. Against the preceding molecule, the IC50 is about 46-fold lower.

For `CCC[C@H](O)[C@H](CNCc1ccc(C)cc1C)NC(=O)CC(=O)Nc1cc(OC)cc(C(F)(F)F)c1`, the IC50 in data set [1] was found to be 24 nM.

In the case of `Cc1ccc(CNC[C@H](NC(=O)CNC(=O)c2cccc(C(F)(F)F)c2)[C@@H](O)CC(C)(C)C)c(C)c1`, the IC50 in data set [1] turned out to be 19 nM.

In turn, `CCC[C@H](O)[C@H](CNCc1ccc(C)cc1C)N1CC[C@H](NC(=O)c2cc(C(F)(F)F)ccc2NC(=O)OC(C)(C)C)C1=O` had a concentration for half-maximal inhibition (IC50) in [1] of 1040 nM.

In turn, `CCC[C@H](O)[C@H](CNCc1ccc(C)cc1C)NC(=O)CC(=O)Nc1cc(C(F)(F)F)ccc1OC` registered an IC50 in data set [1] of 217 nM. Against the preceding molecule, the IC50 is about 4.8-fold lower.

As for `CCC[C@H](O)[C@H](CNCc1ccc(C)cc1C)NC(=O)CNC(=O)c1cc(C(F)(F)F)ccc1NC(C)C`, the IC50 in data set [1] worked out at 5.3 nM.

The molecule `CCC[C@H](O)[C@H](CNCc1ccc(C)cc1C)NC(=O)CNc1n[nH]c2ccc(C(F)(F)F)cc12` came in with an IC50 in [1] of 10 nM.

Turning to `CCC[C@H](O)[C@H](CNCc1ccc(C)cc1C)NC(=O)CNC(=O)c1cc(C(F)(F)F)ccc1NC(=O)N1CCNCC1`, the concentration for half-maximal inhibition (IC50) in data set [1] came out at 2.5 nM. This IC50 lies about 4-fold lower than the previous one.

In data set [1], `CCCC[C@H](O)[C@H](CNCc1ccc(C)cc1C)NC(=O)CNC(=O)c1cccc(C(F)(F)F)c1` gave a concentration for half-maximal inhibition (IC50) of 5 nM.

In turn, `CCC[C@H](O)[C@H](CNCc1ccc(C)cc1C)NC(=O)CC(=O)Nc1cc(C(=O)NCC)cc(C(F)(F)F)c1` displayed an IC50 in data set [1] of 158 nM.

`CCC[C@H](O)[C@H](CNCc1ccc(C)cc1C)NC(=O)CNC(=O)c1cc(C(F)(F)F)ccc1NCc1ccccc1` registered an IC50 in data set [1] of 9.3 nM.

On to `CCCNc1cc(NC(=O)CC(=O)N[C@@H](CNCc2ccc(C)cc2C)[C@@H](O)CCC)cc(C(F)(F)F)c1`, for which the 50% inhibitory concentration (IC50) in [1] stood at 20 nM. Against the preceding molecule, the IC50 is about 2.2-fold higher.

Molecule `CCC[C@H](O)[C@H](CNCc1ccc(C)cc1C)N1CC[C@H](NC(=O)c2cc(C(F)(F)F)ccc2N)C1=O` yielded an IC50 in data set [1] of 900 nM. This IC50 is about 45-fold higher than that of the molecule before.

`Cc1ccc(CNC[C@H](NC(=O)CNC(=O)c2cc(C(F)(F)F)ccc2N)C(C)(C)O)c(C)c1` registered an IC50 in [1] of 160 nM.

For the molecule `CCC[C@H](O)[C@H](CNCc1ccc(C)cc1C)NC(=O)CNC(=O)c1cccc(C(F)(F)F)c1`, the inhibition entry in [2] was “Active”.

Molecule `CCC[C@H](O)[C@H](CNCc1ccc(C)cc1C)NC(=O)CNC(=O)c1cc(C(F)(F)F)ccc1NC(=O)N1CCOCC1` had an IC50 in data set [1] of 3.8 nM.

On to `CCC[C@H](O)[C@H](CNCc1ccc(C)cc1C)NC(=O)CNC(=O)c1cc(N)cc(C(F)(F)F)c1`, for which the IC50 in data set [1] worked out at 6.7 nM.

In [1], `Cc1ccc(CNC[C@H](NC(=O)CNC(=O)c2cccc(C(F)(F)F)c2)[C@@H](O)c2ccccc2)c(C)c1` registered a concentration for half-maximal inhibition (IC50) of 100 nM.

For the molecule `CCC[C@H](O)[C@H](CNCc1ccc(C)cc1C)NC(=O)CNC(=O)c1cc(C(F)(F)F)ccc1NC(=O)OC(C)(C)C`, the half-inhibitory concentration (IC50) in data set [1] came out at 4 nM. In addition, in [2], the inhibition result is “Active”.

Molecule `CCC[C@@H](O)[C@H](CNCc1ccc(C)cc1C)NC(=O)CNC(=O)c1cc(C(F)(F)F)ccc1N` registered a half-maximal inhibitory concentration (IC50) in data set [1] of 7 nM. Besides, the inhibition result in [2] is “inactive”.

Regarding `Cc1ccc(CNC[C@H](NC(=O)CNC(=O)c2cc(C(F)(F)F)ccc2N)C2(O)CCCC2)c(C)c1`, in [1], the IC50 amounted to 87 nM. This lies in the double-digit nanomolar range.

`CCC[C@H](O)[C@H](CNCc1ccc(C)cc1C)NC(=O)CNC(=O)c1cc(C(F)(F)F)ccc1NC(=O)N1CCCC1` displayed an IC50 in [1] of 5.8 nM.

Regarding `CCC[C@H](O)[C@H](CNCc1ccc(C)cc1C)NC(=O)CC(=O)Nc1cc(Br)cc(C(F)(F)F)c1`, the IC50 in [1] came out at 710 nM.

Regarding `CCC[C@H](O)[C@H](CNCc1ccc(C)cc1C)NC(=O)CC(=O)Nc1cc(C(F)(F)F)ccc1NC(=O)OC(C)(C)C`, the IC50 in data set [1] amounted to 240 nM.

The molecule `CCC[C@H](O)[C@H](CNCc1ccc(C)cc1C)NC(=O)CC(=O)Nc1cc(NC)cc(C(F)(F)F)c1` showed a concentration for half-maximal inhibition (IC50) in data set [1] of 7.1 nM.

With `CCC[C@H](O)[C@H](CNCc1ccc(C)cc1C)NC(=O)CNC(=O)c1cc(C(F)(F)F)ccc1NC(=O)N1CCC1`, the concentration for half-maximal inhibition (IC50) in [1] was determined as 2.1 nM.

`CCC[C@H](O)[C@H](CNCc1ccc(C)cc1C)NC(=O)CNC(=O)c1cc(C(F)(F)F)ccc1NC(C)(C)C`: in [1], the IC50 is 7.4 nM. This IC50 lies about 3.5-fold higher than the previous one.

`CCC[C@H](O)[C@H](CNCc1ccc(C)cc1C)NC(=O)CC(=O)Nc1cc(NCC)cc(C(F)(F)F)c1`: in [1], the IC50 was determined as 4.5 nM. Compared with the last molecule, the IC50 is about 1.6-fold lower.

For `CCC[C@H](O)[C@H](CN(Cc1ccc(C)cc1C)C(C)C)NC(=O)CNC(=O)c1cc(C(F)(F)F)ccc1NC(=O)NC(C)C`, the IC50 in [1] came out at 1700 nM. This IC50 is about 380-fold higher than that of the molecule before.

In data set [1], `Cc1ccc(CNC[C@H](NC(=O)CNC(=O)c2cccc(C(F)(F)F)c2)[C@H](O)CC(C)(C)C)c(C)c1` returned an IC50 of 600 nM.

What is called bioavailability is the share of a dose that reaches the circulation, judged against a reference dose that is usually intravenous. Low readings indicate little systemic uptake, high ones much systemic uptake. Usually clearance stands for the volume of plasma or blood freed of the substance per unit of time. Low readings indicate inefficient removal, high ones efficient removal. For the molecule `CCC[C@H](O)[C@H](CNCc1ccc(C)cc1C)NC(=O)CNC(=O)c1cc(C(F)(F)F)ccc1NC(=O)NCC`, the IC50 came out at 86 nM in data set [3] and 3.6 nM in data set [1]. Besides, the result in data set [4] and in [6] was Active. The same molecule yielded a bioavailability in [5] of 29%. In addition, the Selectivity ratio in the data set filed under Mus musculus [7] and in the data set listed under Mus musculus [9] was above 1000 each time. The clearance in data set [8] is 85 mL/min/kg. The inhibition result in [2] is “Active”.

In data set [1], `CCCC[C@@H](O)[C@H](CNCc1ccc(C)cc1C)NC(=O)CNC(=O)c1cccc(C(F)(F)F)c1` returned an IC50 of 180 nM.

In turn, `CCC[C@H](O)[C@H](CN(C)Cc1ccc(C)cc1C)NC(=O)CNC(=O)c1cc(C(F)(F)F)ccc1NC(=O)NC(C)C` yielded a half-inhibitory concentration (IC50) in [1] of 440 nM.

The molecule `Cc1ccc(CNC[C@H](NC(=O)CNC(=O)c2cccc(C(F)(F)F)c2)[C@H](O)C(C)C)c(C)c1` gave an IC50 in data set [1] of 100 nM.

Regarding `CCC[C@H](O)[C@H](CNCc1ccc(C)cc1C)NC(=O)Cc1nc2ccc(C(F)(F)F)cc2[nH]1`, the inhibition (INH) in [10] amounted to 6%.

`CCC[C@H](O)[C@H](CNCc1ccc(C)cc1C)N1CC[C@@H](NC(=O)c2cc(C(F)(F)F)ccc2NC(=O)OC(C)(C)C)C1=O` gave a 50% inhibitory concentration (IC50) in data set [1] of 28000 nM.

In [1], `CC[C@@H](O)[C@H](CNCc1ccc(C)cc1C)NC(=O)CNC(=O)c1cccc(C(F)(F)F)c1` showed an IC50 of 390 nM.

Take `CC[C@H](O)[C@H](CNCc1ccc(C)cc1C)NC(=O)CNC(=O)c1cc(C(F)(F)F)ccc1N`: the IC50 in data set [1] was 17 nM.

`CCC[C@H](O)[C@H](CNCc1ccc(C)cc1C)NC(=O)CC(=O)Nc1cc(NC(=O)OC(C)(C)C)cc(C(F)(F)F)c1`: in [1], the IC50 was 340 nM.

`CCC[C@H](OC)[C@H](CNCc1ccc(C)cc1C)NC(=O)CNC(=O)c1cc(C(F)(F)F)ccc1N` came in with a 50% inhibitory concentration (IC50) in [1] of 11 nM.

As to `CCC[C@H](O)[C@H](CNCc1ccc(C)cc1C)NC(=O)CC(=O)Nc1cccc(C(F)(F)F)c1`, in data set [1], the IC50 was determined as 28 nM.
